# Literature values in US9161911B2, “Gastric retentive pharmaceutical compositions for treatment and prevention of CNS disorders” (priority 2008, dated 2015).
Structure (SMILES),solubility in aqueous media,solubility in water
"NC(Cc1ccc(O)c(O)c1)C(=O)O (single isomer, unassigned; (-)) [Levodopa, (−)-L-alpha-amino-beta-(3,4-dihydroxybenzene) propanoic acid]",poorly soluble,slightly soluble (aqueous solubility (measured at 20° C.) in the range of 2% to 10% by weight)
"C[C@@](Cc1ccc(O)c(O)c1)(NN)C(=O)O.O [Carbidopa, (−)-L-alpha-hydrazino-alpha-methyl-beta-(3,4-dihydroxybenzene) propanoic acid monohydrate]",poorly soluble,slightly soluble (aqueous solubility (measured at 20° C.) in the range of 2% to 10% by weight)
